According to the supplement of paper PMC11208160:

Test: recombinant barcode read abundance after kanamycin selection (control-corrected) (log10(CPM+1)); higher = more efficient recombination; sequences stand for … in AGTGCAGAGAAAATCGGCCAGTTTTCTCTGCCTGCAGTCCGCATGCCGT…AGATTTATGCAGCGGACTGCCTTTCTCCCAAAGTGATAAACCGGACAGTATCATGGACCGGTTTTCCCGGTAATCCGTATTTGCAAGGTTGGTTTCACT; site = the 11-nt target
Method in brief: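 Targets were screened in pooled form in E. coli against IS621 bridge RNA target-binding loops. Recombination efficiency is based on barcode counts at recombinant junctions in counts per million, averaged and corrected for the control. Numbers are shown as log10(CPM+1), with duplicate plates on chloramphenicol/ampicillin LB agar (control) or chloramphenicol/ampicillin/kanamycin with 0.1 mM IPTG.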
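Further: IS621 recombinase and bridge RNA in Escherichia coli cells.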

Sequence	recombinant barcode read abundance (log10)
GTGCGGACTTGGGTTCTAACCTGTTGCGT (site GTGAGGACTAC)	0.676
GTGCGGACTTGGGTTCTAACCTGTTGCGT (site GTGCGGACTAC)	2.06
GTGCTCGCTTGGGTTCTAACCTGTTGCCT (site CTGCCCGCTAG)	0.0812
GTGCTCGCTTGGGTTCTAACCTGTTGCCT (site GTGCTCGCTAG)	1.87
GTGGAATCTTGGGTTCTAACCTGTTGCCT (site GTGAGATCTAG)	0.307
GTGGAATCTTGGGTTCTAACCTGTTGCCT (site GTGGAATCTAG)	1.6
GTGGACTCTTGGGTTCTAACCTGTTGCTA (site GTGGACTCTTA)	2.44
GTGGACTCTTGGGTTCTAACCTGTTGCTA (site GTGTACTCTAA)	0.0609
GTGGCCACTTGGGTTCTAACCTGTTGCCT (site GTAGCCACTAG)	1.86
GTGGCCACTTGGGTTCTAACCTGTTGCCT (site GTCGCCACTAG)	0.152
GTGGCCACTTGGGTTCTAACCTGTTGCCT (site GTGGCCACTAG)	1.74
GTGGCCACTTGGGTTCTAACCTGTTGCCT (site GTTGCCACTAG)	0.229
GTGGGCACTTGGGTTCTAACCTGTTGCCT (site AGAAAGGCTGC)	0.166
GTGGGCACTTGGGTTCTAACCTGTTGCCT (site GTGGGCACTAG)	0.225
GTGGTATCTTGGGTTCTAACCTGTTGCCT (site GTGGTAACTAG)	0.268
GTGGTATCTTGGGTTCTAACCTGTTGCCT (site GTGGTACCTAG)	0.396

Sequence	recombinant barcode read abundance (log10)
GTGGTATCTTGGGTTCTAACCTGTTGCCT (site GTGGTAGCTAG)	0.312
GTGGTATCTTGGGTTCTAACCTGTTGCCT (site GTGGTATCTAG)	1.68
GTGTACCCTTGGGTTCTAACCTGTTGCAC (site AGTATAACTCA)	0.132
GTGTACCCTTGGGTTCTAACCTGTTGCAC (site GTGTACCCTGT)	2.35
GTGTACCCTTGGGTTCTAACCTGTTGCGA (site GTGTACCCTAC)	0.129
GTGTACCCTTGGGTTCTAACCTGTTGCGA (site GTGTACCCTCC)	0.0447
GTGTACCCTTGGGTTCTAACCTGTTGCGA (site GTGTACCCTGC)	0.0937
GTGTACCCTTGGGTTCTAACCTGTTGCGA (site GTGTACCCTTC)	2.35
GTGTATACTTGGGTTCTAACCTGTTGCCT (site GTATATACTAG)	1.12
GTGTATACTTGGGTTCTAACCTGTTGCCT (site GTCTATACTAG)	0.173
GTGTATACTTGGGTTCTAACCTGTTGCCT (site GTGTATACTAG)	1.24
GTGTATACTTGGGTTCTAACCTGTTGCCT (site GTTTATACTAG)	0.075
GTGTCGCCTTGGGTTCTAACCTGTTGCCT (site GTGTCGCCTAC)	0.224
GTGTCGCCTTGGGTTCTAACCTGTTGCCT (site GTGTCGCCTAG)	0.845
GTGTCGCCTTGGGTTCTAACCTGTTGCGT (site GTGTCGCCTAC)	1.72
GTGTCGCCTTGGGTTCTAACCTGTTGCGT (site GTGTCGCCTAG)	0.0604
